From patent publication US10471029B2, “Methods for treating neurological disorders” (Alzheon, Inc., priority 2014, dated 2019)
Read-outs that look alike come from different tables or passages of the source.

Key:
[1] = test system: Alzheimer's Disease patients; conditions: n=599, cited from earlier work
[2] = test system: Alzheimer's Disease patients; assay: Change in ADAS-Cog by ApoE status in North American Trial; assay type: in vivo, human; conditions: for Change in ADAS-Cog Slope vs placebo / Change in ADAS-Cog Week 78: North American Trial
Excerpt: (§1) In certain embodiments, the efficacy of a compound may be determined through the ADAS-cog (Alzheimer's Disease Assessment Scale-cognitive subscale). ADAS was designed to measure the severity of the most important symptoms of Alzheimer's disease (AD). Its subscale ADAS-cog is the most popular cognitive testing instrument used in clinical trials of nootropics. It consists of 11 tasks measuring the disturbances of memory, language, praxis, attention and other cognitive abilities which are often referred to as the core symptoms of AD. The ADAS-Cog helps evaluate cognition and differentiates between normal cognitive functioning and impaired cognitive functioning. It is especially useful for determining the extent of cognitive decline and can help evaluate which stage of Alzheimer's disease a person is in, based on their answers and score. The ADAS-Cog can be used in clinical trials in order to determine incremental improvements or declines in cognitive functioning.
(§2) Patients were administered 3APS at 150 mg BID and 100 mg BID or were provided a placebo. ADAS-Cog results were measured. The data establish that the decline in score is delayed by 3APS. At 13 weeks a small improvement in ADAS-cog was observed. Over time, the difference increased.
Patients were administered 3APS and ADAS-Cog results were obtained at various timepoints. Patients were then genotyped to detect the presence of ApoE4 alleles. FIG. 8 illustrates the advantageous effects of tramiprosate, the active agent of Val-APS, in certain sub-populations segregated based on Apo E4 status. […] Data is presented at 13 weeks, 26 weeks, 39 weeks, 52 weeks, 65 weeks, and 78 weeks. […] ApoE4 prevalence correlates with improved cognition scores.

[3] = test system: Alzheimer's Disease patients; assay: CDR-SB (function) in ApoE4+ subjects (FIG. 3); assay type: in vivo, human; conditions: through 18 months, 150 mg BID, n=183, on top of acetylcholinesterase inhibitors and/or memantine
[4] = test system: Alzheimer's Disease patients; assay: ADAS-Cog by ApoE4 subgroup in merged dataset; assay type: in vivo, human; conditions: for Change in ADAS-Cog Slope vs placebo / Change in ADAS-Cog Week 78 / ADAS-Cog Slope vs placebo / ADAS-Cog Week 78: merged dataset; for Change in ADAS-Cog Slope vs placebo / Change in ADAS-Cog Week 78: <80 years old
Excerpt: as §1, §2

[5] = test system: Alzheimer's Disease patients; assay: ADAS-Cog score following treatment of Alzheimer's Disease patients with tramiprosate, retrospective subgroup analysis in 599 ApoE4+ subjects (FIGS. 1-2); assay type: in vivo, human; conditions: through 18 months, 150 mg BID, n=183, on top of acetylcholinesterase inhibitors and/or memantine
Experimental: FIG. 1 illustrates reduced ADAS-Cog score following treatment of Alzheimer's Disease patients with tramiprosate. At 26 weeks−1.25 (82%) P=0.0219 for 100 mg BID, −1.03 (57%), P=0.118 for 150 mg BID. At 52 weeks−2.03 (35%) P=0.002 for 100 mg BID, −1.85 (32%), P=0.006 for 150 mg BID. At 65 weeks−1.52 (22%) P=0.024 for 100 mg BID, −1.90 (27%) P=0.005 for 150 mg BID. At 78 weeks−1.90 (27%) P=0.005 for 100 mg BID, −1.86 (21%) P=0.028 for 150 mg BID. (n=599). Data derived from Caltagirone et al., “The potential protective effect of tramiprosate (homotaurine) against Alzheimer's disease: a review,” Aging Clin Exp Res. 2012 December; 24(6):580-7.
as §1, with “It is especially useful for determining the extent of cognitive decline and can help evaluate which stage of Alzheimer's disease a person is in, based on their answers and score. The ADAS-Cog can be used in clinical trials in order to determine incremental improvements or declines in cognitive functioning.” left out

[6] = human, in vivo
[7] = Tolerability of Val-APS prodrug over tramiprosate; assay type: in vivo
[8] = Plasma and brain exposure of tramiprosate after oral Val-APS or tramiprosate in animals (FIG. 4); assay type: in vivo; conditions: Val-APS prodrug versus tramiprosate
Excerpt: L-Valyl-3-aminopropanesulfonate (Val-APS) is an orally available small molecule prodrug of tramiprosate with improved pharmaceutical properties. Tramiprosate was advanced to a ˜2,000 patient Phase 3 program which completed in 2007. […] Thus the present disclosure provides for administration of certain compounds including val-APS to ApoE4-positive patients for the treatment of Alzheimer's Disease.
The AUC ratio of brain tramiprosate exposure due to Val-APS compared to tramiprosate is ˜2.1.

In the case of NCCCS(=O)(=O)O [Compound 3APS, 3-amino-1-propanesulfonic acid], the “ADAS-Cog score, percent in brackets” value ([1]; 26 weeks, 100 mg BID) is listed as 82%, the ADAS-Cog score ([1]; 26 weeks, 150 mg BID) is listed as −1.03 and the “ADAS-Cog score, percent in brackets” value ([1]; 26 weeks, 150 mg BID) is listed as 57%. The “ADAS-Cog score, percent in brackets” value ([1]; 52 weeks, 100 mg BID) was 35%, the ADAS-Cog score ([1]; 52 weeks, 150 mg BID) was −1.85 and the “ADAS-Cog score, percent in brackets” value ([1]; 52 weeks, 150 mg BID) was 32%. The “ADAS-Cog score, percent in brackets” value ([1]; 65 weeks, 100 mg BID) was 22%, the ADAS-Cog score ([1]; 65 weeks, 150 mg BID) was −1.90 and the “ADAS-Cog score, percent in brackets” value ([1]; 65 weeks, 150 mg BID) was 27%. The ADAS-Cog score ([1]; 78 weeks, 100 mg BID) was −1.90, the “ADAS-Cog score, percent in brackets” value ([1]; 78 weeks, 100 mg BID) was 27% and the ADAS-Cog score ([1]; 78 weeks, 150 mg BID) was −1.86. For the same molecule, the “ADAS-Cog score, percent in brackets” value ([1]; 78 weeks, 150 mg BID) was 21%, the “Change in ADAS-Cog Slope vs placebo” value ([2]; ApoE4+ and ++, 100 mg BID) was −1.43 and the “Change in ADAS-Cog Week 78” value ([2]; ApoE4+ and ++, 100 mg BID) was −0.81. For the same molecule, the “Change in ADAS-Cog Slope vs placebo” value ([2]; ApoE4+ and ++, 150 mg BID) was −7.49, the “Change in ADAS-Cog Week 78” value ([2]; ApoE4+ and ++, 150 mg BID) was −1.67 and the “Change in ADAS-Cog Slope vs placebo” value ([2]; ApoE4++, 100 mg BID) was −4.33. For the same molecule, the “Change in ADAS-Cog Week 78” value ([2]; ApoE4++, 100 mg BID) was −1.49, the “Change in ADAS-Cog Slope vs placebo” value ([2]; ApoE4++, 150 mg BID) was −19.79 and the “Change in ADAS-Cog Week 78” value ([2]; ApoE4++, 150 mg BID) was −4.63. The “Change in ADAS-Cog Slope vs placebo” value ([2]; ApoE4−, 100 mg BID) was −2.04, the “Change in ADAS-Cog Week 78” value ([2]; ApoE4−, 100 mg BID) was −1.23 and the “Change in ADAS-Cog Slope vs placebo” value ([2]; ApoE4−, 150 mg BID) was 3.57. For the same molecule, the “Change in ADAS-Cog Week 78” value ([2]; ApoE4−, 150 mg BID) was 0.59, the “Change in ADAS-Cog Slope vs placebo” value ([2]; Total, 100 mg BID) was −1.75 and the “Change in ADAS-Cog Week 78” value ([2]; Total, 100 mg BID) was −0.93. The “Change in ADAS-Cog Slope vs placebo” value ([2]; Total, 150 mg BID) was −3.32, the “Change in ADAS-Cog Week 78” value ([2]; Total, 150 mg BID) was −0.83 and the “improvement versus placebo on cognition” value ([2]; homozygous ApoE4 subjects, 150 mg BID, n=34) was 4 point. For the same molecule, the “improvement versus placebo on the ADAS-cog” value ([2]; homozygous ApoE4 subjects, 150 mg BID, n=34, after 18 months of treatment) was 4.62 points, the “function (CDR-SB)” value [3] was “clinically meaningful improvement” and the “decline in ADAS-Cog score” value ([4]; 150 mg BID and 100 mg BID versus placebo) was “delayed”. For the same molecule, the “Change in ADAS-Cog Slope vs placebo” value ([4]; ApoE4+, 100 mg BID) was −3.92, the “Change in ADAS-Cog Week 78” value ([4]; ApoE4+, 100 mg BID) was −1.13 and the “Change in ADAS-Cog Slope vs placebo” value ([4]; ApoE4+, 150 mg BID) was −8.65. The “Change in ADAS-Cog Week 78” value ([4]; ApoE4+, 150 mg BID) was −2.17, the “Change in ADAS-Cog Slope vs placebo” value ([4]; ApoE4−, 100 mg BID) was −4.40 and the “Change in ADAS-Cog Week 78” value ([4]; ApoE4−, 100 mg BID) was −2.54. The “Change in ADAS-Cog Slope vs placebo” value ([4]; ApoE4−, 150 mg BID) was −2.81, the “Change in ADAS-Cog Week 78” value ([4]; ApoE4−, 150 mg BID) was −0.93 and the “Change in ADAS-Cog Slope vs placebo” value ([4]; Total, 100 mg BID) was −3.94. For the same molecule, the “Change in ADAS-Cog Week 78” value ([4]; Total, 100 mg BID) was −1.55, the “Change in ADAS-Cog Slope vs placebo” value ([4]; Total, 150 mg BID) was −6.37 and the “Change in ADAS-Cog Week 78” value ([4]; Total, 150 mg BID) was −1.66. For the same molecule, the “ADAS-Cog Slope vs placebo” value ([4]; ApoE4+, 100 mg BID) was −3.61, the “ADAS-Cog Week 78” value ([4]; ApoE4+, 100 mg BID) was −1.09 and the “ADAS-Cog Slope vs placebo” value ([4]; ApoE4+, 150 mg BID) was −7.09. The “ADAS-Cog Week 78” value ([4]; ApoE4+, 150 mg BID) was −1.73, the “ADAS-Cog Slope vs placebo” value ([4]; ApoE4−, 100 mg BID) was −2.45 and the “ADAS-Cog Week 78” value ([4]; ApoE4−, 100 mg BID) was −1.92. The “ADAS-Cog Slope vs placebo” value ([4]; ApoE4−, 150 mg BID) was 0.35, the “ADAS-Cog Week 78” value ([4]; ApoE4−, 150 mg BID) was −0.66 and the “ADAS-Cog Slope vs placebo” value ([4]; Total, 100 mg BID) was −3.18. For the same molecule, the “ADAS-Cog Week 78” value ([4]; Total, 100 mg BID) was −1.34, the “ADAS-Cog Slope vs placebo” value ([4]; Total, 150 mg BID) was −4.19 and the “ADAS-Cog Week 78” value ([4]; Total, 150 mg BID) was −1.27. For the same molecule, the “cognition (ADAS-cog)” value [5] was “clinically meaningful improvement”.

For CC(C)[C@H](N)C(=O)NCCCS(=O)(=O)O [Val-APS, L-Valyl-3-aminopropanesulfonate], the “formation of metabolite NRM5074” value [6] was “reduced”, the “inter-subject PK variability” value [6] was “decreased” and the t½ [6] was 14.9 ±3.9. For the same molecule, the GI tolerability [7] was “improved”, the “nausea & vomiting” value [7] was “reduced” and the “accumulation in the brain” value [8] was “improved”.
